From PMC7335187, “Super-assembly of ER-phagy receptor Atg40 induces local ER remodeling at contacts with forming autophagosomal membranes” (Nature Communications, 2020) come the findings set out here.

Common to all, as to assay type: binding
In one assay the target is Atg8 (Saccharomyces cerevisiae, UniProt P38182, K26P). As to the kind of experiment: biochemical.
Another assay concerns the target LC3B WT (Rattus norvegicus, UniProt Q62625). As to the kind of experiment: ITC of peptides with LC3B. Particulars: 25 °C, ± fitting error. The source says:
All plasmids for expression of recombinant proteins and peptides in bacteria were based on a pGEX6P-1 vector (GE Healthcare). Construction of pGEX6P-ScAtg8 (1-116) K26P and pGEX6P-rat LC3B (1-120) was previously described[35],[47]. All mutations were generated by PCR-based mutagenesis. The genes were amplified by PCR and inserted downstream of the HRV 3C protease recognition site by NEBuilder HiFi DNA Assembly Master Mix (New England Biolabs) except for that encoding human GABARAP (1-116), which was inserted using restriction enzymes for the NdeI and BamHI sites. Plasmids for expression of fusion proteins for crystallization were constructed by inserting the genes encoding Atg40^237–252, human FAM134B^450–468, human SEC62^361–376 with the T367D mutation, and human RTN3^245–264 isoform e into upstream of the sequence encoding Atg8 K26P of pGEX6P-Atg8 (the K26P mutation was introduced for stabilizing Atg8) or upstream of the sequence encoding GABARAP of pGEX6P-GABARAP (with the F3S V4T mutations for enhancing crystallization). For phase-separation experiments, the mCherry and BNDL1[25],[26] sequences were inserted into upstream and downstream of the ATG8 gene in pGEX6P-Atg8 K26P, respectively. pGEX-SNAP-40C was constructed by the removal of the HRV 3C protease recognition site and the insertion of the SNAP sequence from pSNAP-tag(T7) vector (New England Biolabs) with a linker (Gly–Gly–Gly–Ser–Gly–Gly–Gly) and Atg40^194–256 following a linker (Ser–Ala–Ser–Ser) to upstream and downstream of GST in pGEX6P-1 vector, respectively. In the construction of plasmids for peptide production, a Tyr residue was attached to their C termini for enabling the quantification by absorbance at 280 nm (Supplementary Table 4).
Some of peptides (Supplementary Table 4) and all proteins except Atg40-6His were expressed in E. coli BL21 (DE3). Bacteria were cultured at 37 °C until OD600 became 0.8–1.0 and further cultured at 16 °C with 100 μM IPTG overnight. After centrifugation, the pellets were resuspended with 20 ml PBS with 0.5 mM EDTA and lysed by sonication for 10 min. […]

The target of another assay is GABARAPL1 WT (Homo sapiens, UniProt Q9H0R8). As to the kind of experiment: ITC of peptides with GABARAPL1. The note with it: 25 °C, ± fitting error. Here is the method: (§1) Some of peptides (Supplementary Table 4) and all proteins except Atg40-6His were expressed in E. coli BL21 (DE3). Bacteria were cultured at 37 °C until OD600 became 0.8–1.0 and further cultured at 16 °C with 100 μM IPTG overnight. After centrifugation, the pellets were resuspended with 20 ml PBS with 0.5 mM EDTA and lysed by sonication for 10 min. After centrifugation, the supernatants were incubated with GST-accept resin (Nacalai tesque). After three times wash by PBS, the proteins were eluted with glutathione buffer (10 mM glutathione and 50 mM Tris pH 8.0). The buffer of the eluates was exchanged with PBS by a Bio-Scale Mini BioGel P-6 desalting column (Bio-Rad). After incubation with GST-fused HRV 3 C protease at 4 °C overnight, the samples were subjected to a GST-accept resin column to remove excised GST and the protease. RTN3^245–264-GABARAP was purified by cation-exchange chromatography using CM Sepharose FF column (GE Healthcare) with 500 mM MES pH 6.0 as buffer B and 50 mM MES pH 6.0 and 1 M NaCl as buffer C. The samples were further subjected to size-exclusion chromatography with 20 mM HEPES pH 6.8, 150 mM sodium chloride except for mCherry-Atg8-CC^tetramer (20 mM HEPES pH 6.8, 500 mM sodium chloride) using a Superdex 75 10/300 or Superdex 200 26/60 column. […]
Chain of GABARAPL1 WT (Q9H0R8 whole entry, the tested form may be a part): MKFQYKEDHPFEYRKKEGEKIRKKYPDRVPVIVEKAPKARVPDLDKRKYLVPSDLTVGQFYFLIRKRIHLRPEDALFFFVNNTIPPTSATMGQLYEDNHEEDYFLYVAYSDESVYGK

Another assay concerns the target LC3A WT (Homo sapiens, UniProt Q9H492). As to the kind of experiment: ITC of peptides with LC3A. Particulars: 25 °C, ± fitting error. Here is the method: (§2) Some of peptides (Supplementary Table 4) and all proteins except Atg40-6His were expressed in E. coli BL21 (DE3). Bacteria were cultured at 37 °C until OD600 became 0.8–1.0 and further cultured at 16 °C with 100 μM IPTG overnight. After centrifugation, the pellets were resuspended with 20 ml PBS with 0.5 mM EDTA and lysed by sonication for 10 min. After centrifugation, the supernatants were incubated with GST-accept resin (Nacalai tesque). After three times wash by PBS, the proteins were eluted with glutathione buffer (10 mM glutathione and 50 mM Tris pH 8.0). The buffer of the eluates was exchanged with PBS by a Bio-Scale Mini BioGel P-6 desalting column (Bio-Rad). After incubation with GST-fused HRV 3 C protease at 4 °C overnight, the samples were subjected to a GST-accept resin column to remove excised GST and the protease. RTN3^245–264-GABARAP was purified by cation-exchange chromatography using CM Sepharose FF column (GE Healthcare) with 500 mM MES pH 6.0 as buffer B and 50 mM MES pH 6.0 and 1 M NaCl as buffer C. The samples were further subjected to size-exclusion chromatography with 20 mM HEPES pH 6.8, 150 mM sodium chloride except for mCherry-Atg8-CC^tetramer (20 mM HEPES pH 6.8, 500 mM sodium chloride) using a Superdex 75 10/300 or Superdex 200 26/60 column. As described in Supplementary Table 4, the Atg40^237–252 M245A and Atg40^237–252 D243A D247A peptides were synthesized by Cosmo Bio, and the FAM134B^453–460 and SEC62^361–368 peptides were synthesized by BEX Co., Ltd. The Atg40^234–252 peptide and its variants were prepared using Liberty Blue peptide synthesizer (CEM Corporation). After dissolving these synthesized peptides in 300 μl water with ~10 μl ammonium hydroxide, they were subjected to size-exclusion chromatography with 20 mM HEPES pH 6.8 containing 150 mM sodium chloride using a Superdex 75 10/300 column.
Peptides used in ITC are listed in Supplementary Table 4. ITC experiments were performed using Microcal iTC200 calorimeter (Malvern Panalytical), with stirring at 1000 rpm at 25 °C. […]

The target of another assay is LC3C WT (Homo sapiens, UniProt Q9BXW4). As to the kind of experiment: ITC of peptides with LC3C. The note with it: 25 °C, ± fitting error. How it is done:
as §2
Peptides used in ITC are listed in Supplementary Table 4. ITC experiments were performed using Microcal iTC200 calorimeter (Malvern Panalytical), with stirring at 1000 rpm at 25 °C. Atg40, FAM134B, SEC62, and RTN3 peptides were prepared as injection samples from the syringe. Concentrations of FAM134B, SEC62, and RTN3 peptides were 0.5 mM, whereas those of Atg40^234–252 and Atg40^237–252 peptides were 2.0 and 1.8 mM, respectively. In total, 200 μl Atg8, LC3A, LC3B, LC3C, GABARAP, GABARAPL1, and GABARAPL2 with 10 times lower concentration than the syringe samples were filled in the cell. As an exception, 1.8 mM Atg8 was filled in the cell when 1.8 mM Atg40^237–252 D243A D247A was in a syringe. The titration involved 18 injections of 2 μl of the syringe sample at intervals of 120 s into a cell after one injection of 0.4 μl of syringe sample. […]

For another assay, the target named is GABARAPL2 WT (Homo sapiens, UniProt P60520). As to the kind of experiment: ITC of peptides with GABARAPL2. Particulars: 25 °C, ± fitting error. Here is the method: as §1
Chain of GABARAPL2 WT (P60520 whole entry): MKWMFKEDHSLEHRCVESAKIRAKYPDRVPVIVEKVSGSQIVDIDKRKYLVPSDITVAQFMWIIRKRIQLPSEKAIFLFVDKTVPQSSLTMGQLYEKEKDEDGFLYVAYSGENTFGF

SMILES strings stand for the structures. Where a SMILES comes first, the peptide text is derived from it.

Chain of LC3C WT (Q9BXW4 whole entry): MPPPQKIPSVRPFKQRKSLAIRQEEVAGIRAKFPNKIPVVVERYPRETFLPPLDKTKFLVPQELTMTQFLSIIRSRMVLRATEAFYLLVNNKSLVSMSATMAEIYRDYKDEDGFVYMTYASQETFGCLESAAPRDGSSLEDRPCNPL
Chain of Atg8 (P38182 1-116 K26P): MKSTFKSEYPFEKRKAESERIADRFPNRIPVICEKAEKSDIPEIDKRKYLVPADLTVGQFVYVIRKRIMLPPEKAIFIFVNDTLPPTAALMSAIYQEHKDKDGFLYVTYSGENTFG
Method for Atg8: ITC experiments were performed using Microcal iTC200 calorimeter (Malvern Panalytical), with stirring at 1000 rpm at 25 °C. Atg40, FAM134B, SEC62, and RTN3 peptides were prepared as injection samples from the syringe. […] In total, 200 μl Atg8, LC3A, LC3B, LC3C, GABARAP, GABARAPL1, and GABARAPL2 with 10 times lower concentration than the syringe samples were filled in the cell. […] The titration involved 18 injections of 2 μl of the syringe sample at intervals of 120 s into a cell after one injection of 0.4 μl of syringe sample. Data sets obtained from the titration of the same syringe sample to the cell filled with buffer were used as reference data for subtraction of heat of dilution. MicroCal Origin 7.0 software was used for data analysis. Thermal measurement of the first injection of the syringe samples was removed from the analysis.

As to `CC[C@H](C)[C@H](NC(=O)[C@H](CC(=O)O)NC(=O)[C@H](CCC(=O)O)NC(=O)[C@H](CCSC)NC(=O)[C@H](Cc1ccccc1)NC(=O)[C@H](CC(=O)O)NC(=O)[C@H](Cc1ccc(O)cc1)NC(=O)[C@H](CC(=O)O)NC(=O)[C@H](CC(N)=O)NC(=O)[C@@H]1CCCN1C(=O)[C@H](Cc1ccccc1)NC(=O)[C@H](CCC(=O)O)NC(=O)[C@@H]1CCCN1C(=O)CN)C(=O)N[C@@H](CC(C)C)C(=O)N[C@@H](CC(=O)O)C(=O)N[C@@H](CCC(=O)O)C(=O)N[C@H](C(=O)O)[C@@H](C)O` [Atg40^237-252 WT] (H-GPEFPNDYDFMEDILDET-OH), on Atg8, the Kd was found to be 570 ± 510 nM. Moreover, the “N (site), stoichiometry of binding” value on Atg8 (ITC, 25 °C, peptide in syringe 2.0 or 1.8 mM, Atg8 in cell 10 times lower, single-site model, ± fitting error) stood at 0.90 ± 0.03.
In the case of `CC[C@H](C)[C@H](NC(=O)[C@H](CCC(N)=O)NC(=O)[C@H](CC(=O)O)NC(=O)[C@H](CC(C)C)NC(=O)[C@H](CCC(=O)O)NC(=O)[C@H](CO)NC(=O)[C@H](CCC(N)=O)NC(=O)[C@H](CC(=O)O)NC(=O)[C@H](CC(C)C)NC(=O)[C@H](CC(C)C)NC(=O)[C@H](CCC(=O)O)NC(=O)[C@H](Cc1ccccc1)NC(=O)[C@H](CC(=O)O)NC(=O)[C@H](CC(=O)O)NC(=O)CNC(=O)[C@H](CCC(=O)O)NC(=O)[C@H](CCC(=O)O)NC(=O)[C@@H](NC(=O)[C@H](CC(=O)O)NC(=O)[C@@H](NC(=O)[C@H](CC(=O)O)NC(=O)[C@H](CCC(=O)O)NC(=O)[C@H](CCC(=O)O)NC(=O)[C@@H]1CCCN1C(=O)CN)[C@@H](C)O)[C@@H](C)O)C(=O)N[C@@H](CCC(=O)O)C(=O)N[C@@H](CO)C(=O)N[C@@H](CCC(=O)O)C(=O)N[C@@H](CC(C)C)C(=O)N[C@@H](Cc1ccc(O)cc1)C(=O)O` [FAM134B^444-470 WT], the Kd on LC3B WT (0.5 mM peptide in syringe, LC3B WT in cell 10 times lower, single-site model) amounted to 620 ± 160 nM; on GABARAPL1 WT (0.5 mM peptide in syringe, GABARAPL1 WT in cell 10 times lower, single-site model), 120 ± 40 nM; at LC3A WT (0.5 mM peptide in syringe, LC3A WT in cell 10 times lower, single-site model) it was 210 ± 30 nM; at LC3C WT (0.5 mM peptide in syringe, LC3C WT in cell 10 times lower, single-site model, read-out: Kd), 1110 ± 350 nM; at GABARAPL2 WT (0.5 mM peptide in syringe, GABARAPL2 WT in cell 10 times lower, single-site model) it was 300 ± 100 nM.
In the case of `CC[C@H](C)[C@H](NC(=O)[C@H](CCSC)NC(=O)[C@H](CCC(=O)O)NC(=O)[C@H](Cc1ccccc1)NC(=O)[C@H](CC(=O)O)NC(=O)[C@H](CC(N)=O)NC(=O)CNC(=O)[C@H](CC(N)=O)NC(=O)CNC(=O)[C@H](CO)NC(=O)[C@H](CO)NC(=O)[C@H](Cc1c[nH]cn1)NC(=O)[C@@H]1CCCN1C(=O)CN)C(=O)N[C@H](C(=O)N[C@@H](CCCCN)C(=O)N[C@@H](CCC(=O)O)C(=O)N[C@@H](CCC(=O)O)C(=O)N[C@@H](CC(C)C)C(=O)N[C@@H](CCC(=O)O)C(=O)N[C@@H](CCC(N)=O)C(=O)N[C@@H](CCC(N)=O)C(=O)N[C@H](C(=O)N[C@@H](CC(=O)O)C(=O)N[C@@H](Cc1ccc(O)cc1)C(=O)O)[C@@H](C)O)[C@@H](C)O` [SEC62^355-376 WT] (H-GPHSSGNGNDFEMITKEELEQQTDY-OH), the “N (site), stoichiometry of binding” value is 0.74 ± 0.01 on LC3B WT (LC3B WT in cell, N fixed to 1.0 when fitting not convergent); 0.83 ± 0.01 at GABARAPL1 WT (GABARAPL1 WT in cell); 0.78 ± 0.01 at LC3A WT (LC3A WT in cell); 0.46 ± 0.02 on LC3C WT (LC3C WT in cell, N fixed to 1.0 when fitting not convergent); 0.78 ± 0.01 at GABARAPL2 WT (GABARAPL2 WT in cell, N fixed to 1.0 when fitting not convergent).

For orientation: Kd means a measure of binding affinity in units of concentration.
